What was measured:
[1] = target: T1, human KDR kinase (Homo sapiens, UniProt P35968); test: KDR Kinase Assay (LanthaScreen TR-FRET enzymatic assay); format: biochemical; conditions: 1.2 nM KDR, 92 μM ATP
T1 construct: purchased Carna 08-191
Method: Compounds were tested in a LanthaScreen™ time-resolved fluorescence energy transfer (TR-FRET) enzymatic assay from Invitrogen. The assay used human KDR kinase (Carna 08-191). Test compounds were prepared and diluted in DMSO in 3-fold serial dilutions to 50× of the final testing concentrations. The compounds were then further diluted to 5× by the kinase reaction buffer (50 mM HEPES pH 7.5, 0.0015% Brij-35). The enzymatic reaction for compound testing was performed in a white 384-well polypropylene plate (Corning 3573) with a total reaction volume of 25 μl containing 1.2 nM KDR, 3 μM peptide substrate FAM-P22 (GL Biochem 112393), and 92 μM ATP (Sigma A7699-1G). The assay started with loading RET diluted in kinase reaction buffer to wells, followed by addition of equal volume of 5× compounds for 15-min incubation at the room temperature for pre-treatment. The enzymatic reaction was initiated by addition of mixture of the substrate and ATP prepared in kinase reaction buffer. After incubation at 28° C. for one hour, 25 μl of stopper buffer (a mixture of 100 mM HEPES pH 7.5 buffer, 0.015% Brij-35, 50 mM EDTA and 0.2% of coating reagent 3 (Cliper Lifesciences)) and produce TR-FRET signals. After 30 minutes of incubation at room temperature, the plate was read in a Caliper with the following settings: Excitation 340 nm (30)/Emission1 495 nm (10)/Emission2 520 nm (25). The TR-FRET values were dimensionless numbers that were calculated as the ratio of the acceptor ([…]) signal to the donor (Terbium) signal. Percent of control was calculated as the percentage of compound-treated vs 1% DMSO vehicle-treated. The dose-response curves were generated and the IC50s were calculated by nonlinear sigmoid curve fitting using XLFit.

[2] = system: TT cells; test: TT Cell Proliferation Assay (WST-8, 8 days); format: cell-based; conditions: Homo sapiens, TT, 192 h, growth inhibition in TT cells, read-out: TT Cellular Activity
Method: Compounds disclosed herein were tested for the inhibition of RET by a cancer cell proliferation assay commonly known as MTT assay. In this assay, a complete media was prepared by adding 10% fetal bovine serum to RPMI-1640 medium (Life technology). TT cells were added to each of 88 wells of a 96 well plate at a seeding density of 6,000 cells/well/90 μL. The cells were allowed to attach to the plate by incubating at 37° C. for 24 hours. The compound was dissolved in DMSO (SIGMA). A solution of test compound was prepared in complete media by serial dilution to obtain the following concentrations: 50 μM, 15 μM, 5 μM, 1.5 μM, 0.5 μM, 0.15 μM, 0.05 μM, 0.015 μM and 0.005 μM. The test compound solution (10 μL) was added to each of 80 cell-containing wells. The final concentrations of the compound were following: 5 μM, 1.5 μM, 0.5 μM, 0.15 μM, 0.05 μM, 0.015 μM, 0.005 μM, 0.0015 μM and 0.0005 μM. The final concentration of DMSO is 0.5%. To the 8 remaining cell-containing wells, only complete media (containing 0.5% DMSO) was added to form a control group in order to measure maximal proliferation. To the remaining 8 empty wells, complete media was added to for a vehicle control group in order to measure background. The plates were incubated at 37° C. for 8 days. 10 μL WST-8 solution (DOJINDO, Cell Counting KIT-8) was added to each well. The plates were further incubated at 37° C. for 5 hours, and then read for the absorbance using a microplate reader at 450 nm. The IC50 was calculated using GraphPad Prism.

[3] = target: T2, human RET kinase (Homo sapiens, UniProt P07949); test: RET Kinase Assay (LanthaScreen TR-FRET enzymatic assay); format: biochemical; conditions: 7 nM RET, 23 μM ATP
T2 construct: purchased Carna 08-159
Method: Compounds were tested in a LanthaScreen™ time-resolved fluorescence energy transfer (TR-FRET) enzymatic assay from Invitrogen. The assay used human RET kinase (Carna 08-159). Test compounds were prepared and diluted in DMSO in 3-fold serial dilutions to 50× of the final testing concentrations. The compounds were then further diluted to 5× by the kinase reaction buffer (50 mM HEPES pH 7.5, 0.0015% Brij-35). The enzymatic reaction for compound testing was performed in a white 384-well polypropylene plate (Corning 3573) with a total reaction volume of 25 μl containing 7 nM RET, 3 μM peptide substrate FAM-P2 (GL Biochem 112394), and 23 μM ATP (Sigma A7699-1G). The assay started with loading RET diluted in kinase reaction buffer to wells, followed by addition of equal volume of 5× compounds for 15-min incubation at the room temperature for pre-treatment. The enzymatic reaction was initiated by addition of mixture of the substrate and ATP prepared in kinase reaction buffer. After incubation at 28° C. for one hour, 25 μl of stopper buffer (a mixture of 100 mM HEPES pH 7.5 buffer, 0.015% Brij-35, 50 mM EDTA and 0.2% of coating reagent 3 (Cliper Lifesciences)) and produce TR-FRET signals. After 30 minutes of incubation at room temperature, the plate was read in a Caliper with the following settings: Excitation 340 nm (30)/Emission1 495 nm (10)/Emission2 520 nm (25). The TR-FRET values were dimensionless numbers that were calculated as the ratio of the acceptor ([…]) signal to the donor (Terbium) signal. Percent of control was calculated as the percentage of compound-treated vs 1% DMSO vehicle-treated. The dose-response curves were generated and the IC50s were calculated by nonlinear sigmoid curve fitting using XLFit.

T2 sequence (P07949 29-1114): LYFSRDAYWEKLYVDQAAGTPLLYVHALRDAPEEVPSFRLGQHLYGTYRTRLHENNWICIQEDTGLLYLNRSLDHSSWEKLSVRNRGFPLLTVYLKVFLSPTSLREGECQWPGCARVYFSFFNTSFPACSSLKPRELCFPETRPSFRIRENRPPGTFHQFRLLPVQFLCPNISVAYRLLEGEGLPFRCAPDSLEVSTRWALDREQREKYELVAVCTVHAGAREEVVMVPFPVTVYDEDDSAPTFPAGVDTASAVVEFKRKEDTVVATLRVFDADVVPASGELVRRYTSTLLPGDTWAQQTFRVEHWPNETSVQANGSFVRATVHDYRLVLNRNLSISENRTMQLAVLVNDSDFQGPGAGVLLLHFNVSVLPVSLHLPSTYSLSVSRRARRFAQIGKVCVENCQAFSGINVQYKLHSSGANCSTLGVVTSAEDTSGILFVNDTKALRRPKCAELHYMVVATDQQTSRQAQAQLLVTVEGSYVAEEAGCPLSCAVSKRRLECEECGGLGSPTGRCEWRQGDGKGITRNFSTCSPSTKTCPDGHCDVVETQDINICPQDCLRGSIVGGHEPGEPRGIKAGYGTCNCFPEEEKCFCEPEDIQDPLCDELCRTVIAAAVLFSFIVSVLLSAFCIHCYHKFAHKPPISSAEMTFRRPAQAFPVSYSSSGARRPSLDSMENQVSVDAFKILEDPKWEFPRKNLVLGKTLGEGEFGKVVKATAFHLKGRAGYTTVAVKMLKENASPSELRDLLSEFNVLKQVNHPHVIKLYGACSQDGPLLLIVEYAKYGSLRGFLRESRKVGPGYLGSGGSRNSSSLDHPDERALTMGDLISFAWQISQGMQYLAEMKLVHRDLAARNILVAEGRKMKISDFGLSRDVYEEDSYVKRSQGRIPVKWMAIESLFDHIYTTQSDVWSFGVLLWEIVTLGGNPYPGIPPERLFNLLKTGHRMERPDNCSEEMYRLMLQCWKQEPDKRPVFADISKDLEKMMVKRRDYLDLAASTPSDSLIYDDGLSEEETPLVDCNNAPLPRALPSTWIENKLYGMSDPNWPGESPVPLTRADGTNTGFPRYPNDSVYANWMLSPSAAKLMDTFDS
T1 sequence (P35968 20-1356): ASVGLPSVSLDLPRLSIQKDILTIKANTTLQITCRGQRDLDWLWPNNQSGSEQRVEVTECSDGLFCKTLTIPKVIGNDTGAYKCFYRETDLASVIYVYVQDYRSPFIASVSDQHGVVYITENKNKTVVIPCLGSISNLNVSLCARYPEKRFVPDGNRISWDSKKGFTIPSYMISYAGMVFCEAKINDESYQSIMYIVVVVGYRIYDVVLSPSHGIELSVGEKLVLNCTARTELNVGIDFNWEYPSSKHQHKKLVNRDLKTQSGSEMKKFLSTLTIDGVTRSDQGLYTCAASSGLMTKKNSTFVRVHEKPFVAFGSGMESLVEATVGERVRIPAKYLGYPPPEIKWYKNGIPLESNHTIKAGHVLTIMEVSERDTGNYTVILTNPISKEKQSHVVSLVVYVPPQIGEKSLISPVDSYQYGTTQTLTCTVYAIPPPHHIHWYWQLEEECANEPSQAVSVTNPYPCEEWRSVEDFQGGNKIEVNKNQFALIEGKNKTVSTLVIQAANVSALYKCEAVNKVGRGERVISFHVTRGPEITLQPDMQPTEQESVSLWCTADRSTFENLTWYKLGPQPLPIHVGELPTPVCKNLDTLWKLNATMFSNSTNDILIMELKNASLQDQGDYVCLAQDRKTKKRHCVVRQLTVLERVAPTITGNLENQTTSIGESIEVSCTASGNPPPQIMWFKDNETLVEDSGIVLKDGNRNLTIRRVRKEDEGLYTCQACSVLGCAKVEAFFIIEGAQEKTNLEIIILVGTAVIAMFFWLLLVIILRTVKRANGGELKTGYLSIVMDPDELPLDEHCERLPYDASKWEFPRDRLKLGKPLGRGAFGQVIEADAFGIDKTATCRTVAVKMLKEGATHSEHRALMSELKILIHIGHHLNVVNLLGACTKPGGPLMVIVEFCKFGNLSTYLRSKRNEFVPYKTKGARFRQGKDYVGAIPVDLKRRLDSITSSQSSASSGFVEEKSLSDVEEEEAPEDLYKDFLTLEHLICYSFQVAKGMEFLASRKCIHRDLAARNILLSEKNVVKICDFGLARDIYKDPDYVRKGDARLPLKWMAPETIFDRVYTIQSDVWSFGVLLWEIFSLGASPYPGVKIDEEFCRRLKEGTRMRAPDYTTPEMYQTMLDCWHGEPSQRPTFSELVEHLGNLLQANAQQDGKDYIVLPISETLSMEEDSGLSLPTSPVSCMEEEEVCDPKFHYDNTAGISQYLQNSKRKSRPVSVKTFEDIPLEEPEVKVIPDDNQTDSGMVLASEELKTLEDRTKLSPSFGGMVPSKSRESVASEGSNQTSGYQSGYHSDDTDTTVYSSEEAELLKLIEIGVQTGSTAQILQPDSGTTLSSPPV

IC50 [1] [nM]	IC50 [3] [nM]	SMILES	IC50 [2] [nM]
10 to 50	10 to 50	COc1ccc(C(=O)N[C@]2(C)C[C@H]3CN(c4ccc(-c5cc(OCC(C)(C)O)cn6ncc(C#N)c56)cn4)C[C@H]3C2)cn1 [Example 126, N-((3aR,5s,6aS)-2-(5-(3-cyano-6-(2-hydroxy-2-methylpropoxy)pyrazolo[1,5-a]pyridin-4-yl)pyridin-2-yl)-5-methyloctahydrocyclopenta[c]pyrrol-5-yl)-6-methoxynicotinamide]	50 to 100
≤ 10	≤ 10	Cc1ccc(F)cc1C(=O)N[C@H]1[C@@H]2CN(c3ccc(-c4cc(-c5cnn(C)c5)cn5ncc(C#N)c45)cn3)C[C@@H]21 [Example 26, N-((1R,5S,6s)-3-(5-(3-cyano-6-(1-methyl-1H-pyrazol-4-yl)pyrazolo[1,5-a]pyridin-4-yl)pyridin-2-yl)-3-azabicyclo[3.1.0]hexan-6-yl)-5-fluoro-2-methylbenzamide]	10 to 50
10 to 50	≤ 10	CC(C)(O)COc1cc(-c2ccc(N3C[C@@H]4CN(S(=O)(=O)c5c(F)cccc5Cl)C[C@@H]4C3)nc2)c2c(C#N)cnn2c1 [Example 92, 4-(6-((3aR,6aS)-5-((2-chloro-6-fluorophenyl)sulfonyl)hexahydropyrrolo[3,4-c]pyrrol-2(1H)-yl)pyridin-3-yl)-6-(2-hydroxy-2-methylpropoxy)pyrazolo[1,5-a]pyridine-3-carbonitrile]	10 to 50
≤ 10	≤ 10	Cn1cc(-c2cc(-c3ccc(N4C[C@@H]5[C@@H](CNC(=O)c6ncc(F)cc6Cl)[C@@H]5C4)nc3)c3c(C#N)cnn3c2)cn1 [Example 85, 3-chloro-N-(((1R,5S,6s)-3-(5-(3-cyano-6-(1-methyl-1H-pyrazol-4-yl)pyrazolo[1,5-a]pyridin-4-yl)pyridin-2-yl)-3-azabicyclo[3.1.0]hexan-6-yl)methyl)-5-fluoropicolinamide]	≤ 10
10 to 50	10 to 50	Cn1ccc(-c2cc(-c3ccc(N4C[C@@H]5CN(S(=O)(=O)c6c(F)cccc6Cl)C[C@@H]5C4)nc3)c3c(C#N)cnn3c2)n1 [Example 179, 4-(6-((3aR,6aS)-5-((2-chloro-6-fluorophenyl)sulfonyl)hexahydropyrrolo[3,4-c]pyrrol-2(1H)-yl)pyridin-3-yl)-6-(1-methyl-1H-pyrazol-3-yl)pyrazolo[1,5-a]pyridine-3-carbonitrile]	≤ 10
10 to 50	≤ 10	Cn1cc(-c2cc(-c3cnc(N4C[C@@H]5CN(S(=O)(=O)c6c(F)cccc6Cl)C[C@@H]5C4)cn3)c3c(C#N)cnn3c2)cn1 [Example 182, 4-(5-((3aR,6aS)-5-((2-chloro-6-fluorophenyl)sulfonyl)hexahdropyrrolo[3,4-c]pyrrol-2(1H)-yl)pyrazin-2-yl)-6-(1-methyl-1H-pyrazol-4-yl)pyrazolo[1,5-a]pyridine-3-carbonitrile]	≤ 10
10 to 50	≤ 10	Cn1ccc(-c2cc(-c3ccc(N4C[C@@H]5C[C@@](C)(NC(=O)c6c(F)cccc6Cl)C[C@@H]5C4)nc3)c3c(C#N)cnn3c2)n1 [Example 93, 2-chloro-N-((3aR,5s,6aS)-2-(5-(3-cyano-6-(1-methyl-1H-pyrazol-3-yl)pyrazolo[1,5-a]pyridin-4-yl)pyridin-2-yl)-5-methyloctahydrocyclopenta[c]pyrrol-5-yl)-6-fluorobenzamide]	10 to 50
≤ 10	≤ 10	Cn1cc(-c2cc(-c3ccc(N4C[C@@H]5C[C@@](C)(NS(=O)(=O)c6c(F)cccc6Cl)C[C@@H]5C4)nc3)c3c(C#N)cnn3c2)cn1 [Example 59, 2-chloro-N-((3aR,5s,6aS)-2-(5-(3-cyano-6-(1-methyl-1H-pyrazol-4-yl)pyrazolo[1,5-a]pyridin-4-yl)pyridin-2-yl)-5-methyloctahydrocyclopenta[c]pyrrol-5-yl)-6-fluorobenzenesulfonamide]	≤ 10
10 to 50	≤ 10	CC(C)[C@@H](O)C(=O)N[C@H]1[C@@H]2CN(c3ccc(-c4cc(-c5cnn(C)c5)cn5ncc(C#N)c45)cn3)C[C@@H]21 [Example 19, (R)-N-((1R,5S,6s)-3-(5-(3-cyano-6-(1-methyl-1H-pyrazol-4-yl)pyrazolo[1,5-a]pyridin-4-yl)pyridin-2-yl)-3-azabicyclo[3.1.0]hexan-6-yl)-2-hydroxy-3-methylbutanamide]	10 to 50
≤ 10	≤ 10	Cn1cc(-c2cc(-c3ccc(N4C[C@@H]5[C@@H](CNC(=O)c6cc(F)ccc6Cl)[C@@H]5C4)nc3)c3c(C#N)cnn3c2)cn1 [Example 80, 2-chloro-N-(((1R,5S,6s)-3-(5-(3-cyano-6-(1-methyl-1H-pyrazol-4-yl)pyrazolo[1,5-a]pyridin-4-yl)pyridin-2-yl)-3-azabicyclo[3.1.0]hexan-6-yl)methyl)-5-fluorobenzamide]	≤ 10
10 to 50	≤ 10	CC(C)C(O)C(=O)N[C@H]1[C@@H]2CN(c3ccc(-c4cc(-c5cnn(C)c5)cn5ncc(C#N)c45)cc3)C[C@@H]21 (stereo partly drawn) [Example 16, N-((1R,5S,6s)-3-(4-(3-cyano-6-(1-methyl-1H-pyrazol-4-yl)pyrazolo[1,5-a]pyridin-4-yl)phenyl)-3-azabicyclo[3.1.0]hexan-6-yl)-2-hydroxy-3-methylbutanamide]	10 to 50
> 100	≤ 10	CCOc1cc(-c2ccc(N3C[C@@H]4C[C@@](C)(NC(=O)c5nc(C)ccc5Cl)C[C@@H]4C3)nc2)c2c(C#N)cnn2c1 [Example 67, 3-chloro-N-((3aR,5s,6aS)-2-(5-(3-cyano-6-ethoxypyrazolo[1,5-a]pyridin-4-yl)pyridin-2-yl)-5-methyloctahydrocyclopenta[c]pyrrol-5-yl)-6-methylpicolinaniide]	50 to 100
> 100	10 to 50	Cn1cc(-c2cc(-c3ccc(N4C[C@@H]5C[C@@](C)(NC(=O)c6c(F)cccc6Cl)C[C@@H]5C4)nc3)c3c(C#N)cnn3c2)cn1 [Example 57, 2-chloro-N-((3aR,5s,6aS)-2-(5-(3-cyano-6-(1-methyl-1H-pyrazol-4-yl)pyrazolo[1,5-a]pyridin-4-yl)pyridin-2-yl)-5-methyloctahydro-cyclopenta[c]pyrrol-5-yl)-6-fluorobenzamide]	≤ 10

— US20220220128A1, “HETEROCYCLIC COMPOUNDS AS KINASE INHIBITORS, COMPOSITIONS COMPRISING THE HETEROCYCLIC COMPOUND, AND METHODS OF USE THEREOF” (JS Innopharm (Shanghai) Ltd, priority 2019, published 2022)
